Results published in article PMC11091220, “Metabolism-driven in vitro/in vivo disconnect of an oral ERɑ VHL-PROTAC” (Communications Biology, 2024).
Where “and” joins values, the source holds several entries; their conditions need not be identical. Equal entries are not always repeated.

Columns and labels:
[1] = target: T1, ERα (Homo sapiens, UniProt P03372); experiment: SILAC pulse-chase and mass spectrometry, ERα turnover in MCF7 cells; assay type: cell-based; settings: 1 µM
T1 construct: endogenous in cells; host or cells: MCF7 (also MCF7 engineered to express Cas9)
T1 sequence (P03372 1-595): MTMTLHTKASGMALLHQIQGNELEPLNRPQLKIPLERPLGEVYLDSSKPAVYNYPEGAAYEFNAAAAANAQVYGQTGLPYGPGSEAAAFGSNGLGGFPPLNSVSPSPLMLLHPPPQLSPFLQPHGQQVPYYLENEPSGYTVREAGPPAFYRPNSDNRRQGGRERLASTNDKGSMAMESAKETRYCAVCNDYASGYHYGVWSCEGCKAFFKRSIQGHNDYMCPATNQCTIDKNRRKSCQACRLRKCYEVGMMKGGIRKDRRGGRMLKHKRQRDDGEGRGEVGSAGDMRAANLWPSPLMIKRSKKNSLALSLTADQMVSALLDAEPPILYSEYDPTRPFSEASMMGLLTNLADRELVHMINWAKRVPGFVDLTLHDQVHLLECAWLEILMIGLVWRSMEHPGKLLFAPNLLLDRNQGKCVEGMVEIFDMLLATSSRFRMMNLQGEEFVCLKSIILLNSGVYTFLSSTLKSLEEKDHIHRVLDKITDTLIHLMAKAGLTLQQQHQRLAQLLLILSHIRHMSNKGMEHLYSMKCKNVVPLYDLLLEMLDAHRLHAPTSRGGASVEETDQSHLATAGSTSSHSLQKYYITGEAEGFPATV
Experimental: MCF7 cells were grown for a minimum of 2 passages in SILAC media (Pierce, Thermo Scientific) containing ^13C6^15N4 arginine and ^13C6 lysine. The extent of stable isotope incorporation was determined by mass spectrometry. For the assay, cells were plated at 1.2 x 10^6 cells/well into 6-well TC-treated plates in media containing 5% double charcoal stripped FBS^13,C6^15N4 arginine and ^13C6^15N2 lysine for 24 hours. At time 0, the media containing isotopically heavy arginine and lysine was replaced with media containing unlabelled equivalents plus either AZ’6421, fulvestrant or DMSO control. […] Equal concentrations of timecourse lysates were mixed with an internal standard lysate derived from ^[…] lysine labelled MCF7 cells. ER protein was immunoprecipitated overnight at 4 °C with an ER antibody (Rabbit clone SP1, Thermo Scientific) and immobilised onto a U-bottomed Nunc MaxiSorp plate (Thermo Scientific). Wells were sequentially washed with each of the following; RIPA buffer, PBS and water. Samples were digested by addition of 30 μL well sequencing grade trypsin (Promega) in 50 mM ammonium bicarbonate at 37 °C for a minimum of 16 hours. The resultant peptide samples were acidified and analysed by selected reaction monitoring (SRM) mass spectrometry. Protein half-life was determined using the one-phase exponential decay function in GraphPad PRISM where Y = (Y0 - Plateau)*exp(-K*X) + Plateau.

[2] = target: T1, ERα; experiment: Hypoxia studies, ERα degradation in MCF7 cells; assay type: cell-based; settings: for reduction in ERα levels: MCF7, 48 h
Experimental: MCF7 cells were seeded into 12-well tissue culture-treated plates at 0.5x10^6 cells/well in phenol red-free RPMI media containing 5% (volume/volume [v/v]) charcoal-stripped FBS (F6765, Sigma) and left to adhere overnight. The hypoxia-treated plates were transferred to a Thermo Heracell 150 Tri-gas Incubator set at 2% O2 and allowed to equilibrate to the lower oxygen level overnight. Cells were treated with compound or 0.1% DMSO vehicle control for 48 hours prior to being lysed in Pierce RIPA buffer (Thermo Scientific), supplemented with protease and phosphatase inhibitors. Lysis was carried out immediately after removal from the Tri-gas incubator to prevent the rapid degradation of HIF1α on re-exposure to the higher oxygen levels. Protein expression was determined by standard western blotting procedures as described above.

[3] = Solution NMR hydrogen-bond donor shielding (A-NMR, temperature-dependent shift); assay type: physicochemical; settings: N-terminal amide HBD of (S,R,S)-AHPC
Excerpt: 1. Supplementary Note 1: 3D Conformer of AZ’6421 (5) free in solution
PROTACs are prone to intramolecular interactions that can substantially modify their drug-like properties.1 Here we used solution NMR spectroscopy to determine the 3D conformer of 5 free in solution. Initially, water/DMSO mixtures were utilised to enhance solubility of these highly lipophilic compounds in a relevant protic solvent. However, The 1D 1H-NMR signals of 5 in a mixture of DMSO […]
pure DMSO was used for simplicity. By two 1D 1H-NMR based methods A-NMR2 and temperature- […]
values are both indicative of HBD shielding, whereas the benzyl-amide NH donor of the VHL binding motif and the indole NH in the ERα binding substructure show values characteristic of solvent exposure. By 2D rotating-frame nuclear Overhauser effect (NOE) and 1H-13C long-range correlation (13C-HSQMBC) NMR spectroscopy we determined distance and tortional angle restraints for 3D structure calculation showing an intra-molecular H-bond to the ether oxygen proximal to the N-terminus of (S,R,S)-AHPC. Deletion of this ether oxygen from the N-terminus of (S,R,S)-AHPC produces a large chemical change of 0.6 ppm for the NH donor, whereas most other 1H signals remain unchanged (Figure S3). […]

[4] = target: T1, ERα; experiment: Western blot analysis of ERα in MCF7 cells (dose response, MG132, VHL ligand and cpd 8 competition); assay type: cell-based; settings: Figure 6f, read-out: ERa % of control

Cc1ncsc1-c1ccc(CNC(=O)[C@@H]2C[C@@H](O)CN2C(=O)[C@@H](NC(=O)COCCCOCCCOc2cc(F)c([C@@H]3c4[nH]c5ccccc5c4C[C@@H](C)N3CC(C)(C)F)c(F)c2)C(C)(C)C)cc1 [Compound 5]
% heavy (ERα heavy peptide) ([1]; Time 0, MCF7): 100.0%
% heavy (ERα heavy peptide) ([1]; Time 0.5, listed as AZ'6421): 51.8% and 84.4% and 43.4%
% heavy (ERα heavy peptide) ([1]; Time 1, listed as AZ'6421): 24.8% and 28.9% and 24.0%
% heavy (ERα heavy peptide) ([1]; Time 2, listed as AZ'6421): 13.8% and 13.6% and 9.7%
% heavy (ERα heavy peptide) ([1]; Time 4, listed as AZ'6421): 5.2% and 6.5% and 4.4%
% heavy (ERα heavy peptide) ([1]; Time 7, listed as AZ'6421): 3.1% and 4.5% and 3.3%
% heavy (ERα heavy peptide) ([1]; Time 24, listed as AZ'6421): 3.2% and 3.4% and 2.7%
% heavy (ERα heavy peptide) ([1]; Time 48, listed as AZ'6421): 3.5% and 3.4% and 2.6%
reduction in ERα levels ([2]; 10 nM, hypoxic (2% O2)): 99%
reduction in ERα levels ([2]; 10 nM, normoxic): 98%
ERa levels (% of vehicle control) ([2]; Hypoxic, 0.1 nM): 45.941%
ERa levels (% of vehicle control) ([2]; Hypoxic, 1 nM): 5.353%
ERa levels (% of vehicle control) ([2]; Hypoxic, 10 nM): 0.903%
ERa levels (% of vehicle control) ([2]; Hypoxic, 100 nM): 0.157%
ERa levels (% of vehicle control) ([2]; Normoxic, 0.1 nM): 31.081%
ERa levels (% of vehicle control) ([2]; Normoxic, 1 nM): 8.315%
ERa levels (% of vehicle control) ([2]; Normoxic, 10 nM): 1.645%
ERa levels (% of vehicle control) ([2]; Normoxic, 100 nM): 0.645%
A-NMR value [3]: 0.03
temperature-dependent perturbation ([3]; DMSO): -2.6 ppb/K

C[C@@H]1Cc2c([nH]c3ccccc23)[C@@H](c2c(F)cc(OCCC(=O)O)cc2F)N1CC(C)(C)F [Compound 8]
remaining activity at 0.001 µM ([4]; 1 nM): 51.3%
remaining activity at 0.01 µM ([4]; 10 nM): 51.6%
remaining activity at 0.03 µM ([4]; 30 nM): 47.7%
remaining activity at 0.1 µM ([4]; 100 nM): 29.2%
remaining activity at 0.3 µM ([4]; 300 nM): 46.3%
remaining activity at 1 µM ([4]; 1000 nM): 42%
